Data from US4175081A, “5-Substituted thiadiazole ureas” (priority 1977, dated 1979).

Legend:
Johnson grass (JG) [1] = experiment: Post-emergence herbicide test; type: in vivo, Sorgum helepense; conditions: Sorghum halepense, 336 h, two weeks after treatment; for pest or weed control at 8966.8 g/ha: 8 lb/acre
Outline: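 Greenhouse pot-grown seedlings sprayed post-emergence at 8 lbs compound per acre (some at 4 lbs/acre) in 38 gallons per acre spray volume. Sub-irrigated thereafter. Injury/control rated visually two weeks after treatment.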

Barnyard grass (BG) [2] = experiment: Pre-emergence herbicide test; type: in vivo; conditions: Echinochloa crus-galli, 336 h, two weeks after treatment; for pest or weed control at 8966.8 g/ha: 8 lb/acre
Outline: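 Barnyard grass surface-seeded in potting soil and sprayed pre-emergence one day after seeding, at 8 or 4 lb compound/acre in 38 gal/acre spray volume. Pots kept in greenhouse with sub-irrigation only; injury or control rated visually two weeks after treatment.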

Bean (BN) [3] = experiment: Post-emergence herbicide test; type: in vivo, Phaseolus vulgaris var. Black Valentine; conditions: Phaseolus vulgaris, post-emergence, 336 h, two weeks after treatment; for pest or weed control at 8966.8 g/ha: 8 lb/acre
Outline: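 Snapbean (Phaseolus vulgaris var. Black Valentine) was tested post-emergence. Four seeds were sown in 3' plastic pots of potting soil at a depth equal to the seed diameter, then sub-irrigated in greenhouse trays. Planting dates were staggered so plants were sprayed once primary leaves had expanded, with the growing point at the primary leaf nodes.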

Amaranth pigweed (PW) [4] = experiment: Pre-emergence herbicide test; type: in vivo, Amaranthus retroflexus; conditions: 336 h, two weeks after treatment; for pest or weed control at 8966.8 g/ha: 8 lb/acre
Outline: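 Pigweed was surface-seeded in potted soil one day before spraying at 8 lbs compound per acre, or 4 lbs/acre, in 38 gallons per acre. Pots were kept in the greenhouse with sub-irrigation only; injury or control was rated visually two weeks after treatment.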

Corn (CN) [5] = experiment: Post-emergence herbicide test; type: in vivo; conditions: Zea mays, 336 h, two weeks after treatment; for pest or weed control at 8966.8 g/ha: 8 lb/acre
Outline: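 Greenhouse seedlings grown in potting soil and sprayed post-emergence at 8 lbs compound/acre (formulations also made for 4 lbs/acre) in 38 gallons/acre spray volume. Watering by sub-irrigation only. Injury or control rated visually two weeks after treatment.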

Cotton (CT) [6] = experiment: Post-emergence herbicide test; type: in vivo, Gossypium hirsutum var. DPL smooth leaf; conditions: Gossypium hirsutum, post-emergence, 336 h, two weeks after treatment; for pest or weed control at 8966.8 g/ha: 8 lb/acre
Outline: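 Cotton (Gossypium hirsutum var. DPL smooth leaf) was grown in 3' plastic pots of potting soil, four seeds per pot, planted at a depth equal to the seed diameter and watered by sub-irrigation. At the stage of expanded cotyledons with the first true leaf 1' long, plants were sprayed post-emergence in a hood with a fixed nozzle over a moving belt. Percent control was rated visually two weeks later.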

Corn (CN) [7] = experiment: Pre-emergence herbicide test; type: in vivo; conditions: Zea mays, 336 h, two weeks after treatment; for pest or weed control at 8966.8 g/ha: 8 lb/acre
Outline: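 Four corn seeds per pot, sown at seed-diameter depth one day before spraying, got soil surface treatment at 8 lbs/acre (4 lbs/acre formulations also prepared) in 38 gallons/acre. Pots were greenhouse-held with sub-irrigation only. Injury or control was scored visually two weeks after treatment.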

Turnip (TP) [8] = experiment: Pre-emergence herbicide test; type: in vivo, Brassica sp.; conditions: Brassica rapa, pre-emergence, 336 h, two weeks after treatment; for pest or weed control at 8966.8 g/ha: 8 lb/acre
Outline: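 Turnip (Brassica sp.) seeds were surface sown in 3' plastic pots of potting soil, covered with a thin layer of screened soil, and sub-irrigated in greenhouse trays. Pots were seeded one day ahead of treatment, sprayed pre-emergence under a hood with a fixed nozzle and moving belt, then kept in the greenhouse.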

[9] = tested on: Yellow foxtail grass (YF); experiment: Post-emergence herbicide test; type: in vivo, Setaria glauca; conditions: Setaria, 336 h, two weeks after treatment; for pest or weed control at 8966.8 g/ha: 8 lb/acre
Outline: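 Potted seedlings grown in greenhouse, planting staggered to reach the target stage together, then sprayed post-emergence at 8 lbs actual compound/acre in 38 gallons/acre (4 lbs/acre formulations also prepared). Sub-irrigated afterwards. Injury or control rated visually two weeks after treatment.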

[10] = tested on: Yellow foxtail grass (YF); experiment: Pre-emergence herbicide test; type: in vivo, Setaria glauca; conditions: Setaria, 336 h, two weeks after treatment; for pest or weed control at 8966.8 g/ha: 8 lb/acre
Outline: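 Seeds surface-sown in potting soil one day before spraying; compounds applied pre-emergence at 8 or 4 lbs/acre in 38 gallons/acre spray. Pots held in greenhouse with sub-irrigation only. Injury or control rated visually two weeks after treatment.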

Johnson grass (JG) [11] = experiment: Pre-emergence herbicide test; type: in vivo, Sorgum helepense; conditions: Sorghum halepense, 336 h, two weeks after treatment; for pest or weed control at 8966.8 g/ha: 8 lb/acre
Outline: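 Pots seeded one day before spraying; compound applied pre-emergence at 8 lbs/acre (or 4 lbs/acre) in 38 gallons/acre spray volume. Sub-irrigated in greenhouse; injury/control rated visually two weeks after treatment.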

Barnyard grass (BG) [12] = experiment: Post-emergence herbicide test; type: in vivo; conditions: Echinochloa crus-galli, 336 h, two weeks after treatment; for pest or weed control at 8966.8 g/ha: 8 lb/acre
Outline: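 Greenhouse pot-grown barnyard grass seedlings sprayed post-emergence at 8 lbs active compound per acre (some at 4 lbs/acre) in 38 gallons per acre, then sub-irrigated. Injury or control rated visually two weeks after treatment.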

Crabgrass (CG) [13] = experiment: Post-emergence herbicide test; type: in vivo, Digitaria sanquinalis; conditions: Digitaria sanguinalis, post-emergence, 336 h, two weeks after treatment; for pest or weed control at 8966.8 g/ha: 8 lb/acre
Outline: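 Crabgrass (Digitaria sanquinalis) was surface seeded individually in 3' plastic pots of potting soil, covered with screened soil, and watered by sub-irrigation in greenhouse trays. Planting was staggered so seedlings reached the target stage together. Post-emergence sprays were applied in a hood with a removable belt and fixed nozzle, and control was visually rated two weeks after treatment.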

Cotton (CT) [14] = experiment: Pre-emergence herbicide test; type: in vivo, Gossypium hirsutum var. DPL smooth leaf; conditions: Gossypium hirsutum, 336 h, two weeks after treatment; for pest or weed control at 8966.8 g/ha: 8 lb/acre
Outline: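 Crop and weed species seeded one day before treatment, then sprayed pre-emergence at 8 lbs actual compound per acre (also 4 lbs/acre formulations) in 38 gallons per acre. Pots kept in greenhouse with sub-irrigation only; injury or control visually rated two weeks after treatment.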

Amaranth pigweed (PW) [15] = experiment: Post-emergence herbicide test; type: in vivo, Amaranthus retroflexus; conditions: 336 h, two weeks after treatment; for pest or weed control at 8966.8 g/ha: 8 lb/acre
Outline: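 Pot-grown pigweed was sprayed post-emergence at the 1–2 true-leaf stage with compound at rates equivalent to 8 lbs per acre (formulations also prepared for 4 lbs/acre) in 38 gallons per acre, using a hood with fixed nozzle. Plants were sub-irrigated in the greenhouse, and injury or control was rated visually two weeks after treatment.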

Bean (BN) [16] = experiment: Pre-emergence herbicide test; type: in vivo, Phaseolus vulgaris var. Black Valentine; conditions: Phaseolus vulgaris, 336 h, two weeks after treatment; for pest or weed control at 8966.8 g/ha: 8 lb/acre
Outline: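 Black Valentine bean was seeded in potting soil one day before spraying. Compound was applied pre-emergence at 8 lbs/acre (also 4 lbs/acre) in 38 gallons per acre. Plants were sub-irrigated and injury or control was rated visually after two weeks.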

Crabgrass (CG) [17] = experiment: Pre-emergence herbicide test; type: in vivo, Digitaria sanquinalis; conditions: Digitaria sanguinalis, pre-emergence, 336 h, two weeks after treatment; for pest or weed control at 8966.8 g/ha: 8 lb/acre
Outline: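 Crabgrass (Digitaria sanquinalis) was surface seeded in 3' plastic pots of potting soil, covered with screened soil, and watered by sub-irrigation in greenhouse trays. Pots were seeded one day before spraying in a hood with a moving belt and fixed nozzle. Plants stayed in the greenhouse on sub-irrigation, and pre-emergence control was rated visually two weeks after treatment.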

Turnip (TP) [18] = experiment: Post-emergence herbicide test; type: in vivo, Brassica sp.; conditions: Brassica rapa, post-emergence, 336 h, two weeks after treatment; for pest or weed control at 8966.8 g/ha: 8 lb/acre
Outline: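 A greenhouse post-emergence herbicide test on turnip. Seeds were sown on the surface of potting soil in 3' plastic pots, lightly covered with screened soil and watered from below. Planting was timed so seedlings had 1 or 2 true leaves above the cotyledons at spraying, done in a hood with a fixed nozzle. Control or injury was scored by eye after two weeks.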

C=CCNC(=O)Nc1nnc(SC)s1 [Example 31]
100%: pest or weed control at 8966.8 g/ha (Bean (BN) [3]) | pest or weed control at 8966.8 g/ha (Cotton (CT) [6])
10%: pest or weed control at 8966.8 g/ha (Corn (CN) [7])
30%: pest or weed control at 8966.8 g/ha (Johnson grass (JG) [1]) | pest or weed control at 8966.8 g/ha (Barnyard grass (BG) [2]) | pest or weed control at 8966.8 g/ha (Turnip (TP) [8]) | pest or weed control at 8966.8 g/ha [9] | pest or weed control at 8966.8 g/ha (Crabgrass (CG) [13]) | pest or weed control at 8966.8 g/ha (Cotton (CT) [14])
20%: pest or weed control at 8966.8 g/ha (Amaranth pigweed (PW) [4]) | pest or weed control at 8966.8 g/ha (Corn (CN) [5]) | pest or weed control at 8966.8 g/ha (Johnson grass (JG) [11]) | pest or weed control at 8966.8 g/ha (Barnyard grass (BG) [12])
90%: pest or weed control at 8966.8 g/ha (Amaranth pigweed (PW) [15])
50%: pest or weed control at 8966.8 g/ha (Turnip (TP) [18])
70%: pest or weed control at 8966.8 g/ha [10] | pest or weed control at 8966.8 g/ha (Crabgrass (CG) [17])
80%: pest or weed control at 8966.8 g/ha (Bean (BN) [16])

CNC(=O)N(C)c1nnc(C(C)(C)C)s1 [Example 42]
0%: pest or weed control at 2241.7 g/ha (Corn (CN) [7]; 2 lb/acre)
80%: pest or weed control at 2241.7 g/ha (Barnyard grass (BG) [2]; 2 lb/acre) | pest or weed control at 2241.7 g/ha (Bean (BN) [3]; 2 lb/acre) | pest or weed control at 4483.4 g/ha ([10]; 4 lb/acre)
90%: pest or weed control at 4483.4 g/ha (Johnson grass (JG) [1]; 4 lb/acre) | pest or weed control at 4483.4 g/ha (Barnyard grass (BG) [2]; 4 lb/acre) | pest or weed control at 8966.8 g/ha (Barnyard grass (BG) [2]) | pest or weed control at 8966.8 g/ha (Corn (CN) [7]) | pest or weed control at 4483.4 g/ha (Turnip (TP) [8]; 4 lb/acre) | pest or weed control ([9]; 2 lb/acre) | pest or weed control at 4483.4 g/ha ([9]; 4 lb/acre) | pest or weed control at 2241.7 g/ha ([10]; 2 lb/acre) | pest or weed control at 8966.8 g/ha [10] | pest or weed control at 4483.4 g/ha (Johnson grass (JG) [11]; 4 lb/acre) | pest or weed control at 2241.7 g/ha (Barnyard grass (BG) [12]; 2 lb/acre) | pest or weed control at 4483.4 g/ha (Barnyard grass (BG) [12]; 4 lb/acre) | pest or weed control at 8966.8 g/ha (Cotton (CT) [14]) | pest or weed control at 4483.4 g/ha (Bean (BN) [16]; 4 lb/acre) | pest or weed control (Crabgrass (CG) [17]; 2 lb/acre) | pest or weed control at 4483.4 g/ha (Crabgrass (CG) [17]; 4 lb/acre) | pest or weed control at 8966.8 g/ha (Crabgrass (CG) [17])
40%: pest or weed control (Crabgrass (CG) [13]; 2 lb/acre) | pest or weed control at 2241.7 g/ha (Bean (BN) [16]; 2 lb/acre)
100%: pest or weed control at 8966.8 g/ha (Johnson grass (JG) [1]) | pest or weed control at 4483.4 g/ha (Bean (BN) [3]; 4 lb/acre) | pest or weed control at 8966.8 g/ha (Bean (BN) [3]) | pest or weed control at 2241.7 g/ha (Amaranth pigweed (PW) [4]; 2 lb/acre) | pest or weed control at 4483.4 g/ha (Amaranth pigweed (PW) [4]; 4 lb/acre) | pest or weed control at 8966.8 g/ha (Amaranth pigweed (PW) [4]) | pest or weed control at 8966.8 g/ha (Corn (CN) [5]) | pest or weed control at 2241.7 g/ha (Cotton (CT) [6]; 2 lb/acre) | pest or weed control at 4483.4 g/ha (Cotton (CT) [6]; 4 lb/acre) | pest or weed control at 8966.8 g/ha (Cotton (CT) [6]) | pest or weed control at 2241.7 g/ha (Turnip (TP) [8]; 2 lb/acre) | pest or weed control at 8966.8 g/ha (Turnip (TP) [8]) | pest or weed control at 8966.8 g/ha [9] | pest or weed control at 8966.8 g/ha (Johnson grass (JG) [11]) | pest or weed control at 8966.8 g/ha (Barnyard grass (BG) [12]) | pest or weed control at 8966.8 g/ha (Crabgrass (CG) [13]) | pest or weed control at 2241.7 g/ha (Amaranth pigweed (PW) [15]; 2 lb/acre) | pest or weed control at 4483.4 g/ha (Amaranth pigweed (PW) [15]; 4 lb/acre) | pest or weed control at 8966.8 g/ha (Amaranth pigweed (PW) [15]) | pest or weed control at 8966.8 g/ha (Bean (BN) [16]) | pest or weed control at 2241.7 g/ha (Turnip (TP) [18]; 2 lb/acre) | pest or weed control at 4483.4 g/ha (Turnip (TP) [18]; 4 lb/acre) | pest or weed control at 8966.8 g/ha (Turnip (TP) [18])
60%: pest or weed control at 4483.4 g/ha (Corn (CN) [7]; 4 lb/acre)
30%: pest or weed control at 2241.7 g/ha (Cotton (CT) [14]; 2 lb/acre)
70%: pest or weed control (Johnson grass (JG) [1]; 2 lb/acre) | pest or weed control (Corn (CN) [5]; 2 lb/acre) | pest or weed control at 4483.4 g/ha (Corn (CN) [5]; 4 lb/acre) | pest or weed control at 2241.7 g/ha (Johnson grass (JG) [11]; 2 lb/acre) | pest or weed control at 4483.4 g/ha (Crabgrass (CG) [13]; 4 lb/acre) | pest or weed control at 4483.4 g/ha (Cotton (CT) [14]; 4 lb/acre)
